This is an account of results in patent publication US7718804B2, “Quaternary nitrogen heterocyclic compounds for detecting aqueous monosaccharides in physiological fluids” (University of Maryland Biotechnology Institute, priority 2003, dated 2010).

A short description of series [1]: Spectral properties in water (absorption, emission, quantum yield, lifetime). As to conditions: for φf (quantum yield): relative to SPQ (φf=0.53 in water). Type of series: physicochemical. The protocol:
(§1) All steady state fluorescence measurements were performed in a 4×1×1 cm fluorometric plastic cuvette, using a Varian Cary Eclipse fluorometer, and all absorption measurements were performed using a Varian UV/VIS 50 spectrophotometer.
Time-solved intensity decays were measured using reverse start-stop time-correlated single-photon timing (TCSPC) with a Becker and Hickl Gmbh 630 SPC PC card and unamplified MCP-PMT. Vertically polarized excitation at ˜372 nm was obtained using a pulsed LED source (1 MHz repetition rate) and a dichroic sheet polarizer. The instrumental response function was ˜1.1 ns fwhm. The emission was collected at the magic angle (54.7°) using a long pass filter (Edmund Scientific) which cut-off the excitation wavelengths.
The intensity decays were analyzed in terms of the multi-exponential model:
[formula] where αi are the amplitudes and τi are the decay times, Σαi=1.0. The fractional contribution of each component to the steady-state intensity is given by:
The mean lifetime of the excited state is given by:
The values of αi and τi were determined by non-linear least squares impulse reconvolution with a goodness-of-fit χ^2R criterion.
A representative absorption and emission spectra for o-BMQBA in water is shown in FIG. 3B, which corresponds to all three isomers and BMQ. BMQBA has a strong absorption band at ˜320 nm, which can be assigned to n→π* transitions, and an excitation band at ˜427 nm, and as such, has a large Stokes shift of about 100 nm, which is ideal for fluorescence sensing. The quantum yield values of the BMQBA compounds in water relative to N-(3-sulfopropyl)-6-methoxyquinolinium (SPQ) (φf=0.53 in water) are shown in Table 1. The low quantum yields and relatively short lifetime of the BMQBA and BMQ molecules can be attributed to a photo-induced electron transfer, whereby the phenyl ring acts as the donor and the quinolinium moiety acts as the acceptor.
A representative absorption and emission spectra for o-BMOQBA in water is shown in FIG. 3A, which corresponds to all three isomers and BMOQ. BMOQBA has a strong absorption band at ˜345 nm, which can be assigned to n→π* transitions, and an excitation band at ˜450 nm, and as such, has a large Stokes shift of about 100 nm, which is ideal for fluorescence sensing. The quantum yield values of the BMOQBA compounds in water relative to N-(3-sulfopropyl)-6-methoxyquinolinium (SPQ) (φf=0.53 in water) are shown in Table 2. […] We can only speculate as to the quantum yield differences between the m-BMOQBA and p-BMOQBA compounds, which may be attributed to through-bond and through-space mechanisms.

For series [2] the following is noted: in water; cited from earlier work.
Series [3] can be described thus: Fluorescence intensity response to glucose in solution. As to conditions: 60 mM glucose, pH 8.0 buffer/methanol (2:1). The protocol: All steady state fluorescence measurements were performed in a 4×1×1 cm fluorometric plastic cuvette, using a Varian Cary Eclipse fluorometer, and all absorption measurements were performed using a Varian UV/VIS 50 spectrophotometer. […]
The emission spectra of o-BMOQBA in the presence of varying concentrations of glucose and fructose are shown in FIG. 12A and FIG. 12B, respectively. It can be seen that the fluorescence intensity of o-BMOQBA in pH 7.5 phosphate buffer is inversely proportional to the glucose and fructose concentrations. […] A plot of the intensity ratio, I′/I, at λ=450 nm, where I′ and I represent the fluorescence intensities in the absence and presence of sugar, respectively, is shown in FIG. 12C. […] Referring to FIG. 12C, there is a 2.8-fold change in intensity by the addition of 60 mM sugar.
(§2) The intensity ratio at λ=450 nm for o-BMOQBA in buffered media (pH 5-8) at various glucose concentrations is shown in FIG. 16A, wherein I′ corresponds to the intensity in the absence of glucose and I corresponds to the intensity at the specified glucose concentration. In addition, the intensity ratio for o-BMOQBA in buffered media (pH 5-8) at low glucose concentrations, typical of those found in tears, is shown in FIG. 16B. Correspondingly, the intensity ratio for o-BMOQBA in buffered media (pH 5-8) at various fructose concentrations is shown in FIGS. 17A and 17B.
Each BAF was tested to determine the usefulness of these BAFs with regard to tear glucose sensing in a contact lens. Towards that end, both solution-based and doped contact lens-based measurements, the methods of which are described above, were performed and subsequently compared.

Series [4] in a line: Fluorescence intensity response to fructose in solution. The method, then:
as §1
The emission spectra of o-BMQBA in the presence of varying concentrations of fructose and glucose are shown in FIG. 4A and FIG. 4B, respectively. It can be seen that the fluorescence intensity of o-BMQBA in pH 7.5 phosphate buffer is inversely proportional to the glucose and fructose concentrations. […] A plot of the intensity ratio, I′/I, at λ=427 nm, where I′ and I represent the fluorescence intensities in the absence and presence of sugar, respectively, is shown in FIG. 4C. […] It is noted that the concentration of fructose in blood is ˜10 times lower than glucose, a relationship which is also thought to occur in tears (N. Dicesare, et. al., J. Bio. Med. Opt., 7(4), 538-545 (2002)).
The intensity ratio for o-BMQBA in buffered media (pH 5-8) at various glucose concentrations is shown in FIG. 8A, wherein I′ corresponds to the intensity in the absence of glucose and I corresponds to the intensity at the specified glucose concentration. In addition, the intensity ratio for o-BMQBA in buffered media (pH 5-8) at low glucose concentrations, typical of those found in tears, is shown in FIG. 8B. Correspondingly, the intensity ratio for o-BMQBA in buffered media (pH 5-8) at various fructose concentrations is shown in FIGS. 9A and 9B.
Because physiological fluids contain chloride ions, which are well known quenchers of quinolinium fluorescence (Geddes, C. D., Meas. Sci. Technol., 12(9), R53-R88 (2001); Geddes, C. D., et al., J. Heterocyclic Chem., 36(4), 949-951 (1999); Geddes, C. D., et al., Anal. Biochem., 293(1), 60-66 (2001)), the fluorescence intensity and intensity ratios of o-BMQBA in pH 7.5 buffer having 100 mM NaCl with varying quantities of fructose or glucose was measured and shown in FIGS. 10 and 11, respectively, where I′ corresponds to the intensity in the absence of fructose and I corresponds to the intensity at the specified fructose concentration. It can be seen that although chloride quenched the intensity of the emission in the presence of fructose, the intensity ratio change for fructose is still significant, amounting to a 4-fold decrease in fluorescence intensity at 60 mM fructose (see FIG. 10B). The quenching effect was less significant at lower concentrations of fructose (see FIG. 10C) and for glucose concentrations, both high and low (see FIGS. 11B and 11C). This minimal quenching effect for BMQBA is supported by the calculated Stern-Volmer constants, KSV, for the BMQBA compounds in water, which were determined to be 44.0 M^−1, 20.0 M^−1, 17.0 M^−1 and 35.0 M^−1 for o-BMQBA, m-BMQBA, p-BMQBA and BMQ, respectively. These are small quenching constants that are readily accounted for using simple corrections in the fluorescence signal, as readily determined by one skilled in the art of fluorescence.
as §2
Each BAF was tested to determine the usefulness of these BAFs with regard to tear glucose sensing in a contact lens. Towards that end, both solution-based and doped contact lens-based measurements, the methods of which are described above, were performed and subsequently compared. […]

Series [5] in a line: Fluoride sensing by fluorescence. An excerpt: Moreover, because the quenching of fluorescence is not a selective process, any fluorophore quenched by chloride is also quenched by bromide and iodide to an even more substantial extent, allowing for the determination of bromide or iodide concentrations as well. Generally, fluorophores that are quenched by chloride are not quenched by fluoride, which is often attributed to the “heavy-atom effect” (Geddes, C. D., Meas. Sci. Technol., 12, R53 (2001); Lakowicz, J. R., Principles of Fluorescence Spectroscopy, 2nd ed., Kluwer/Academic Plenum Publishers, New York, 1997).

Consider `COc1ccc2c(ccc[n+]2Cc2ccccc2)c1` [BMOQ, N-benzyl-6-methoxyquinolinium bromide], for which, in series [1], the “λem (max)” value is 453 nm, the “τf (mean lifetime)” value is recorded as 27.3 ns and the “φf (quantum yield)” value was determined as 0.54.

Take `COc1ccc2c(ccc[n+]2CCCS(=O)(=O)O)c1` [SPQ, N-(3-sulfopropyl)-6-methoxyquinolinium]: in series [2], the “φf (quantum yield) of reference standard” value is listed as 0.53.

As to `CN(C)c1ccc(/C=C/c2ccc(B(O)O)cc2)cc1` [DSTBA, 4′-dimethylaminostilbene-4-boronic acid], the “ratiometric change in intensity” value worked out at 2 fold in series [3] and 4.5 fold in series [4] (60 mM fructose, pH 8.0 buffer/methanol (2:1)). The “blue shift of emission spectra” value in series [4] (fructose 0 mM→100 mM, pH 8.0 buffer/methanol (2:1)) was “about 30 nm”.

For `Cc1ccc2c(ccc[n+]2Cc2ccccc2)c1` [BMQ, N-benzyl-6-methylquinolinium bromide], in series [1], the “λabs (max)” value turned out to be 322 nm, the “λem (max)” value stood at 427 nm, the “τf (mean lifetime)” value is recorded as 2.59 ns and the “φf (quantum yield)” value is given as 0.045.

As to `Nc1ccc2c(ccc[n+]2Cc2ccccc2B(O)O)c1.[Br-]` [BAQBA, N-(2-boronobenzyl)-6-aminoquinolinium bromide], the detectable fluoride concentration entry in series [5] was “below 50 mM”.

As for `N#Cc1ccc(/C=C/c2ccc(B(O)O)cc2)cc1` [CSTBA, 4′-cyanostilbene-4-boronic acid], the “red shift of emission spectra” value in series [4] (increasing fructose, pH 8.0 buffer/methanol (2:1)) was “about 25 nm”.

On to `CN(C)c1ccc(/C=C/C=C/C(=O)c2ccc(B(O)O)cc2)cc1` [Chalc 2, 5-[4′-(dimethylamino)phenyl]-1-(4′-boronophenyl)-pent-2,4-dien-1-one], for which the “increase in fluorescence emission” value in series [4] (100 mM fructose, pH 8.0, solution) was determined as 3 fold.
